The values below are quoted from earlier work in US11441162B2, “Human gut microbiome-derived biosynthetic enzymes for production of fatty acid amides” (Massachusetts Institute of Technology, priority 2019, dated 2022).

The target of this series is T1, GPR119 (Homo sapiens, UniProt Q8TDV5).
T1 sequence (Q8TDV5 1-335): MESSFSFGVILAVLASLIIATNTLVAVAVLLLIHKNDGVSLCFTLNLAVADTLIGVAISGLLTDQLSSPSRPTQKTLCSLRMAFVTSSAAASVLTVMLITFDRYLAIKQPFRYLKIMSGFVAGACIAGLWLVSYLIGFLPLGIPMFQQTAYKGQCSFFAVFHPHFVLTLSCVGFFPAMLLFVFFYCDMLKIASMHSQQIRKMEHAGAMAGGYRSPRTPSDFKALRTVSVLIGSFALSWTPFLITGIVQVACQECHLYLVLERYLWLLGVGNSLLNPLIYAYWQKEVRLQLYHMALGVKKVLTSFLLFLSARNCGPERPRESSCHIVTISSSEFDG
The following applies: previously reported human microbiome-derived FAA GPCR modulator; read-out: GPR119 agonist at (previously reported); cited from earlier work.

`CCCCCCCC/C=C\CCCCCCCC(=O)NC(CO)CO` [oleoyl serinol]: the EC50 is 7 µM.
